“And” between values parts separate entries of the source, which are not always exact repeats. Equal values may be shown once. Read-outs that look alike come from different tables or passages of the source.
Assays:
SARS-CoV-2 wild-type = test: microbe, parasite or virus in culture; format: cell-based; settings: Severe acute respiratory syndrome coronavirus 2, 24 h, read-out: EC50 (IFA)
MHV [1] = test: microbe, parasite or virus in culture; format: cell-based, mouse hepatitis virus (MHV); settings: Murine coronavirus, 24 h, read-out: EC50 (IFA)
HCoV-229E [2] = test: In vitro antiviral activity assay (IFA), HCoV-229E; format: cell-based; settings: for Inhibition rate (IFA): Fig 5F, MOI 0.1, 48 h
HCoV-229E [3] = test: Infection of ALI-cultured primary HBEs, HCoV-229E; format: cell-based
Experimental: Primary HBEs at passage 3 or earlier were seeded at a density of 40,000 cells per well in Transwell inserts (Costar 6.5 mm Transwell, 0.4 μm Pore Polyester Membrane Inserts, catalog 3470) for expansion culture. The cells were cultured in expansion medium (PneumaCult-Ex Plus Medium, catalog 05040) until tight junctions were formed. Once tight junctions were established, the expansion medium in the upper chamber was discarded, and the medium in the lower chamber was replaced with ALI differentiation medium (PneumaCult-ALI Medium, catalog 05001). Cells were maintained under ALI conditions, with the medium being changed every 2 days. The differentiation process was carried out for 21 days, during which cell morphology and differentiation status were monitored. The fully differentiated cells were infected with HCoV-OC43, HCoV-229E, HCoV-NL63, or SARS-CoV-2 (MOI = 1), and fresh medium was changed 1 hour postinfection. Specific peptide was added into the medium every 24 hours. At 96 hours postinfection, cells in Transwell inserts were washed with 140 μL PBS per insert, and the wash fluid was collected to extract virus RNA followed by RT-qPCR. […] The fluorescence was measured using ImageJ (NIH).

SARS-CoV-2 Omicron BA.5 = format: in vivo, K18-hACE2 C57BL/6 mice; settings: mouse, in vivo
MHV [4] = system: MHV; design: species or system C57BL/6 mice; settings: mouse, in vivo
HCoV-229E [5] = system: HCoV-229E; design: species or system K18-hACE2 C57BL/6 mice; settings: mouse, in vivo
SARS-CoV-2 M protein = format: cell-based
MHV [6] = format: cell-based, mouse hepatitis virus (MHV); settings: for Inhibition, combination matrix (Figure S12C): Molnupiravir 0 uM; for Inhibition, combination matrix (Figure S12D): nirmatrelvir 0 uM
MHV [7] = system: MHV
hHgs 1-390 protein = hHgs 1-390 protein (Homo sapiens, UniProt O14964); test: biochemical
Sequence of hHgs 1-390 protein (O14964 1-390): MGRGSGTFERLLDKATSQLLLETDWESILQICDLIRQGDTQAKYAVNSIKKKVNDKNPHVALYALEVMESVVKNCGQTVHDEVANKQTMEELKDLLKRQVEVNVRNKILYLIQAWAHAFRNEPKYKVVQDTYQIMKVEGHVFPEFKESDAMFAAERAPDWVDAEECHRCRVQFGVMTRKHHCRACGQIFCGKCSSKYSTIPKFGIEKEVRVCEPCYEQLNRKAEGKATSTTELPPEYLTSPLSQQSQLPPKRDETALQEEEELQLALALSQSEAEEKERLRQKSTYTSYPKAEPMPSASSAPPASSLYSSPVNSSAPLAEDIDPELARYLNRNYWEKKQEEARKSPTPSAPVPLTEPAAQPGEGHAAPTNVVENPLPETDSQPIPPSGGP

[8] = biological target: hHGS 1-390-6 × HIS protein (Homo sapiens, UniProt O14964); test: biochemical
Sequence of hHGS 1-390-6 × HIS protein (O14964 1-390): as above

[9] = Tolerability of RTB in mice; settings: high concentrations (500 mg/kg)

Structure (SMILES): CCCC(=O)OC[C@@H](OC(=O)CCC)[C@@H](OC(=O)CCC)[C@H](Cn1c2nc(=O)[nH]c(=O)c-2nc2cc(C)c(C)cc21)OC(=O)CCC [RTB, riboflavin tetrabutyrate]
- EC50 (SARS-CoV-2 wild-type): 14.8 µM
- EC50 (MHV [1]): 11.2 µM
- Inhibition rate (IFA) (HCoV-229E [2]; conc 10 (unit not given)): 1.96% and 3.23% and 5.67%
- Inhibition rate (IFA) (HCoV-229E [2]; conc 30 (unit not given)): 3.76% and 4.49% and 3.62%
- Inhibition rate (IFA) (HCoV-229E [2]; conc 100 (unit not given)): 5.42% and 6.32% and 1.81%
- Inhibition rate (IFA) (HCoV-229E [2]; conc 200 (unit not given)): 10.91% and 9.21% and 8.05%
- Inhibition rate (IFA) (HCoV-229E [2]; conc 1000 (unit not given)): 20.9% and 20.96% and 21.52%
- Inhibition rate (IFA) (HCoV-229E [2]; conc 5000 (unit not given)): 53.61% and 55.59% and 56.09%
- Inhibition rate (IFA) (HCoV-229E [2]; conc 10000 (unit not given)): 87.09% and 86.7% and 87.17%
- Inhibition rate (IFA) (HCoV-229E [2]; conc 20000 (unit not given)): 98.7% and 98.72% and 98.89%
- EC50 (HCoV-229E [2]; Human coronavirus 229E, 48 h, read-out: EC50 (IFA)): 6.11 µM
- extracellular viral gRNA levels (RT-qPCR) (HCoV-229E [3]; Fig 5H, HCoV-229E MOI = 1, ALI-cultured HBEs, 96 h, RTB dose 5 (unit not given)): 7 and 6 and 8
- inhibition of infection in ALI cultures of HBEs (HCoV-229E [3]; HCoV-229E): significant, dose-dependent inhibition
- Survival curves: per-mouse event code (SARS-CoV-2 Omicron BA.5): 0
- body weight loss (SARS-CoV-2 Omicron BA.5): markedly reduced body weight loss
- lung inflammation (SARS-CoV-2 Omicron BA.5): alleviated lung inflammation
- pulmonary viral titers (SARS-CoV-2 Omicron BA.5): substantially lowered pulmonary viral titers
- survival (SARS-CoV-2 Omicron BA.5): significantly improved survival
- pulmonary viral titers (MHV [4]): lowered pulmonary viral titers
- viral gRNA (MHV [4]): significantly reduced viral gRNA
- virus-induced lung injury (MHV [4]): markedly attenuated virus-induced lung injury
- pulmonary viral titers (HCoV-229E [5]): lowered pulmonary viral titers
- viral gRNA (HCoV-229E [5]): significantly reduced viral gRNA
- virus-induced lung injury (HCoV-229E [5]): markedly attenuated virus-induced lung injury
- Colocalization of M with Sec61b (Manders' coefficient) (SARS-CoV-2 M protein): 0.92 and 0.994 and 0.992
- M protein localization (SARS-CoV-2 M protein): induced M retention in the ER
- Sec61b colocalization coefficient (Figure 7I) (SARS-CoV-2 M protein): 0.867 and 0.94 and 0.917
- Inhibition, combination matrix (Figure S12C) (MHV [6]; RTB 0.01 uM): -3.196
- Inhibition, combination matrix (Figure S12D) (MHV [6]; RTB 0.01 uM): 0.02357
- Inhibition, combination matrix (Figure S12C) (MHV [6]; RTB 0.03 uM): 0.4191
- Inhibition, combination matrix (Figure S12D) (MHV [6]; RTB 0.03 uM): 0.6847
- Inhibition, combination matrix (Figure S12C) (MHV [6]; RTB 0.1 uM): 5.187
- Inhibition, combination matrix (Figure S12D) (MHV [6]; RTB 0.1 uM): 4.267
- Inhibition, combination matrix (Figure S12C) (MHV [6]; RTB 0.3 uM): 0.1333
- Inhibition, combination matrix (Figure S12D) (MHV [6]; RTB 0.3 uM): 7.699
- Inhibition, combination matrix (Figure S12C) (MHV [6]; RTB 1 uM): 5.1
- Inhibition, combination matrix (Figure S12D) (MHV [6]; RTB 1 uM): 9.0154
- Inhibition, combination matrix (Figure S12C) (MHV [6]; RTB 3 uM): 12.0762
- Inhibition, combination matrix (Figure S12D) (MHV [6]; RTB 3 uM): 25.2258
- Inhibition, combination matrix (Figure S12C) (MHV [6]; RTB 10 uM): 64.6863
- Inhibition, combination matrix (Figure S12D) (MHV [6]; RTB 10 uM): 39.9859
- Inhibition, combination matrix (Figure S12C) (MHV [6]; RTB 25 uM): 94.0563
- Inhibition, combination matrix (Figure S12D) (MHV [6]; RTB 25 uM): 93.5156
- combination effect in vitro (MHV [6]; combined with molnupiravir): additive effects
- combination effect in vitro (MHV [6]; combined with nirmatrelvir): additive effects
- cell viability, Figure S9C (17Cl-1 cells; concentration 100): 97.7719 and 100.641 and 97.299
- cell viability, Figure S9C (17Cl-1 cells; concentration 200): 98.9701 and 100.61 and 98.3395
- cell viability, Figure S9C (17Cl-1 cells; concentration 500): 100.294 and 99.5691 and 98.0557
- cell viability, Figure S9C (17Cl-1 cells; concentration 1000): 100.137 and 99.6952 and 100.704
- cell viability, Figure S9C (17Cl-1 cells; concentration 2000): 101.366 and 100.294 and 100.61
- cell viability, Figure S9C (17Cl-1 cells; concentration 5000): 101.555 and 101.524 and 100.673
- cell viability, Figure S9C (17Cl-1 cells; concentration 10000): 99.979 and 101.24 and 100.294
- cell viability, Figure S9C (17Cl-1 cells; concentration 20000): 99.506 and 99.1907 and 98.4025
- cell viability, Figure S9N (Calu-3 cells; concentration 100): 105.852 and 107.383 and 107.23
- cell viability, Figure S9N (Calu-3 cells; concentration 200): 101.565 and 101.412 and 100.391
- cell viability, Figure S9N (Calu-3 cells; concentration 500): 101.157 and 97.3801 and 98.3498
- cell viability, Figure S9N (Calu-3 cells; concentration 1000): 97.9415 and 98.4518 and 97.0228
- cell viability, Figure S9N (Calu-3 cells; concentration 2000): 101.616 and 101.361 and 95.2365
- cell viability, Figure S9N (Calu-3 cells; concentration 5000): 102.331 and 100.647 and 99.932
- cell viability, Figure S9N (Calu-3 cells; concentration 10000): 101.31 and 101.055 and 99.5747
- cell viability, Figure S9N (Calu-3 cells; concentration 20000): 107.281 and 106.312 and 107.792
- viability of infected cells (rescue of cytopathic effect), Figures S9G-L (MHV [7]; concentration 10): 46.6398 and 47.8192 and 45.9379
- viability of infected cells (rescue of cytopathic effect), Figures S9G-L (MHV [7]; concentration 30): 48.4931 and 47.9876 and 45.7132
- viability of infected cells (rescue of cytopathic effect), Figures S9G-L (MHV [7]; concentration 100): 49.4197 and 48.1842 and 47.2295
- viability of infected cells (rescue of cytopathic effect), Figures S9G-L (MHV [7]; concentration 300): 52.6488 and 47.5665 and 45.7132
- viability of infected cells (rescue of cytopathic effect), Figures S9G-L (MHV [7]; concentration 1000): 53.6878 and 50.8517 and 50.0094
- viability of infected cells (rescue of cytopathic effect), Figures S9G-L (MHV [7]; concentration 3000): 66.4358 and 61.915 and 62.9259
- viability of infected cells (rescue of cytopathic effect), Figures S9G-L (MHV [7]; concentration 10000): 81.009 and 81.0651 and 81.6829
- viability of infected cells (rescue of cytopathic effect), Figures S9G-L (MHV [7]; concentration 25000): 85.0805 and 84.4908 and 83.1711
- IC50 (hHgs 1-390 protein): 0.58 µM
- Kd [8]: 4.82 µM
- cytotoxicity or adverse effects in mice [9]: no cytotoxicity or adverse effects
